# Biological target: T1, human MDM2 protein (amino acids 2-188) (Homo sapiens (Human), UniProt Q00987)
# Test: TR-FRET p53-MDM2 Assay 1
# Assay type: binding
# Conditions: 1.25 nM MDM2-biotinylated, 10 nM Cy5-p53 peptide
# Method: (§1) Time Resolved Fluorescence Energy Transfer (TR-FRET) Assay
# (§2) The inhibition of p53-MDM2 and p53-MDM4 interactions is measured by time resolved fluorescence energy transfer (TR-FRET). Fluorescence energy transfer (or Foerster resonance energy transfer) describes an energy transfer between donor and acceptor fluorescent molecules. For this assay, human MDM2 protein (amino acids 2-188) and human MDM4 protein (amino acids 2-185), tagged with a C-terminal biotin moiety, are used in combination with a Europium labeled streptavidin (Perkin Elmer, Inc., Waltham, Mass., USA) serving as the donor fluorophore. The p53 derived, Cy5 labeled peptide Cy5-TFSDLWKLL (p53 aa18-26) is the energy acceptor. Upon excitation of the donor molecule at 340 nm, binding interaction between MDM2 or MDM4 and the p53 peptide induces energy transfer and enhanced response at the acceptor emission wavelength at 665 nm.
# (§3) Disruption of the formation of the p53-MDM2 or p53-MDM4 complex due to an inhibitor molecule binding to the p53 binding site of MDM2 or MDM4 results in increased donor emission at 620 nm. The ratiometric FRET assay readout is calculated from the raw data of the two distinct fluorescence signals measured in time resolved mode (fluorescence 665 nm/fluorescence 620 nm×1000).
# (§4) The test is performed in white 384-well plates (Greiner Bio-One, reference 781207) in a total volume of 60 μL by adding 1 μL of compounds tested at different concentrations diluted in 100% DMSO (1.7% final DMSO concentration) in reaction buffer (PBS, 125 mM NaCl, 0.001% Novexin (consists of carbohydrate polymers), designed to increase the solubility and stability of proteins; Expedeon Ltd., Cambridgeshire, United Kingdom), 0.01% Gelatin, 0.01% 0.2%, Pluronic F-127 (block copolymer from ethylenoxide and propyleneoxide), 1 mM DTT). After addition of 1.25 nM MDM2-biotinylated or 2.5 nM MDM4-biotinylated (internal preparations, both MDM2 and MDM4 are biotinylated at the C-terminal of the peptide construct), and 0.625 nM Europium labeled streptavidin (Perkin Elmer), the solution is pre-incubated for 15 minutes at room temperature, then 10 nM Cy5-p53 peptide (internal preparation, the Cy5 dye is directly bound to the N-terminal part of p53 peptide construct) is added before an incubation at room temperature for 15 minutes prior to reading the plate. For measurement of samples, a Victor II microplate reader (Perkin Elmer) is used with the following settings: Excitation 340 nm, Emission Donor 620 nm and Emission Acceptor 665 nm. IC50 values are calculated by curve fitting using XLfit. If not specified, reagents are purchased from Sigma-Aldrich Chemie GmBH, Buchs, Switzerland.
# (§5) This assay was used to evaluate compounds displaying inhibition of p53-MDM2 interaction and p53-MDM4 interaction at IC50s of 0.005 to 50 μM (p53-MDM2 Assay 1 and p53-MDM4 Assay 1, respectively). For selected compounds displaying IC50s between […] on MDM2, a slightly modified assay is used with the following adaptations: 0.1 nM MDM2, 0.1 nM Europium labeled streptavidin and Tecan genios Pro is used as a microplate reader for the fluorescence measurements (p53-MDM2 Assay 2).
# T1 sequence (Q00987 2-188): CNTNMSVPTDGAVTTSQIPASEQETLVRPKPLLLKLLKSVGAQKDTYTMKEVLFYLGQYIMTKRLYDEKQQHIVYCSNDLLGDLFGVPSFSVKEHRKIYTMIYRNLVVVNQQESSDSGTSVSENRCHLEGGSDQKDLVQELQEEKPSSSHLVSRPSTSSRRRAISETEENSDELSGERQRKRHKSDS
row,IC50 [µM],SMILES
1,0.12,"CC(C)n1c(Br)nc2c1C(c1ccc(Cl)cc1)N(c1cccc(Cl)c1F)C(=O)N2 (centres unmarked) [Example 5, 8-Bromo-1-(3-chloro-2-fluorophenyl)-6-(4-chlorophenyl)-7-isopropyl-6,7-dihydro-1H-purin-2(3H)-one]"

# Biological target: T1, human MDM2 protein (amino acids 2-188)
# Test: TR-FRET p53-MDM2 Assay 2 (modified: 0.1 nM MDM2)
# Assay type: binding
# Conditions: 0.1 nM MDM2, 0.1 nM Europium labeled streptavidin, Tecan genios Pro reader
# Method: as §1, §2, §3, §4, §5
row,IC50 [nM],SMILES
1,0.447,"COc1ccc(C(=O)NCCO)cc1-c1nc2c(n1C(C)C)C(c1ccc(Cl)cc1C)N(c1cc(Cl)ccc1C)C(=O)N2 (centres unmarked) [Example 8, 3-[1-(5-Chloro-2-methyl-phenyl)-6-(4-chloro-2-methyl-phenyl)-7-isopropyl-2-oxo-2,3,6,7-tetrahydro-1H-purin-8-yl]-N-(2-hydroxy-ethyl)-4-methoxy-benzamide]"
2,0.356,"COc1ncc(-c2nc3c(n2C(C)C)C(c2ccc(Cl)c(F)c2)N(c2cc(Cl)c[nH]c2=O)C(=O)N3)c(OC)n1 (centres unmarked) [Example 25, 1-(5-Chloro-2-oxo-1,2-dihydropyridin-3-yl)-6-(4-chloro-3-fluorophenyl)-8-(2,4-dimethoxypyrimidin-5-yl)-7-isopropyl-6,7-dihydro-1H-purin-2(3H)-one]"
3,0.531,"COc1ccc(F)cc1-c1nc2c(n1C(C)C)C(c1ccc(Cl)cc1C)N(c1cc(Cl)ccc1C)C(=O)N2 (centres unmarked) [Example 7, 1-(5-Chloro-2-methyl-phenyl)-6-(4-chloro-2-methyl-phenyl)-8-(5-fluoro-2-methoxy-phenyl)-7-isopropyl-1,3,6,7-tetrahydro-purin-2-one]"
4,0.451,"COc1ncc(-c2nc3c(n2C(C)C)C(c2ccc(Cl)c(F)c2)N(c2ccc(F)c(Cl)c2)C(=O)N3)c(OC)n1 (centres unmarked) [Example 15, 6-(4-Chloro-3-fluorophenyl)-1-(3-chloro-4-fluorophenyl)-8-(2,4-dimethoxypyrimidin-5-yl)-7-isopropyl-6,7-dihydro-1H-purin-2(3H)-one]"
5,3.11,"COc1ncc(-c2nc3c(n2C(C)C)C(c2ccc(Cl)cc2C)N(c2cc(Cl)c(=O)n(C)c2)C(=O)N3)c(OC)n1 (centres unmarked) [Example 16, 1-(5-Chloro-1-methyl-6-oxo-1,6-dihydro-pyridin-3-yl)-6-(4-chloro-2-methyl-phenyl)-8-(2,4-dimethoxy-pyrimidin-5-yl)-7-isopropyl-1,3,6,7-tetrahydro-purin-2-one]"
6,0.371,"COc1ccc(CO)cc1-c1nc2c(n1C(C)C)C(c1ccc(Cl)cc1C)N(c1cc(Cl)ccc1C)C(=O)N2 (centres unmarked) [Example 11, 1-(5-Chloro-2-methyl-phenyl)-6-(4-chloro-2-methyl-phenyl)-8-(5-hydroxymethyl-2-methoxy-phenyl)-7-isopropyl-1,3,6,7-tetrahydro-purin-2-one]"
7,0.432,"COc1ccc(C(=O)N(C)C)cc1-c1nc2c(n1C(C)C)C(c1ccc(Cl)cc1C)N(c1cc(Cl)ccc1C)C(=O)N2 (centres unmarked) [Example 10, 3-[1-(5-Chloro-2-methyl-phenyl)-6-(4-chloro-2-methyl-phenyl)-7-isopropyl-2-oxo-2,3,6,7-tetrahydro-1H-purin-8-yl]-4-methoxy-N,N-dimethyl-benzamide]"
8,0.385,"COc1nc(N(C)C)ncc1-c1nc2c(n1C(C)C)C(c1ccc(Cl)c(F)c1)N(c1ccc(F)c(Cl)c1)C(=O)N2 (centres unmarked) [Example 23, 6-(4-Chloro-3-fluorophenyl)-1-(3-chloro-4-fluorophenyl)-8-(2-(dimethylamino)-4-methoxypyrimidin-5-yl)-7-isopropyl-6,7-dihydro-1H-purin-2(3H)-one]"
9,0.587,"COc1nc(N(C)C)ncc1-c1nc2c(n1C(C)C)C(c1ccc(Cl)cc1)N(c1cc(Cl)cn(C)c1=O)C(=O)N2 (centres unmarked) [Example 22, 1-(5-Chloro-1-methyl-2-oxo-1,2-dihydropyridin-3-yl)-6-(4-chlorophenyl)-8-(2-(dimethylamino)-4-methoxypyrimidin-5-yl)-7-isopropyl-6,7-dihydro-1H-purin-2(3H)-one]"
10,2.91,"COc1ncc(-c2nc3c(n2C(C)C)C(c2ccc(Cl)cc2)N(c2cc(Cl)cn(C)c2=O)C(=O)N3)c(OC)n1 (centres unmarked) [Example 18, 1-(5-Chloro-1-methyl-2-oxo-1,2-dihydropyridin-3-yl)-6-(4-chlorophenyl)-8-(2,4-dimethoxypyrimidin-5-yl)-7-isopropyl-6,7-dihydro-1H-purin-2(3H)-one]"
11,0.473,"COc1ccccc1-c1nc2c(n1C(C)C)C(c1ccc(C#N)cc1)N(c1cccc(Cl)c1F)C(=O)N2 (centres unmarked) [Example 14, 4-(1-(3-Chloro-2-fluorophenyl)-7-isopropyl-8-(2-methoxyphenyl)-2-oxo-2,3,6,7-tetrahydro-1H-purin-6-yl)benzonitrile]"
12,4.3,"COc1nc(N)ncc1-c1nc2c(n1C(C)C)C(c1ccc(Cl)cc1)N(c1cc(Cl)cn(C)c1=O)C(=O)N2 (centres unmarked) [Example 21, 8-(2-Amino-4-methoxypyrimidin-5-yl)-1-(5-chloro-1-methyl-2-oxo-1,2-dihydropyridin-3-yl)-6-(4-chlorophenyl)-7-isopropyl-6,7-dihydro-1H-purin-2(3H)-one]"
13,0.21,"CNC(=O)c1ccc(OC)c(-c2nc3c(n2C(C)C)C(c2ccc(Cl)cc2C)N(c2cc(Cl)ccc2C)C(=O)N3)c1 (centres unmarked) [Example 9, 3-[1-(5-Chloro-2-methyl-phenyl)-6-(4-chloro-2-methyl-phenyl)-7-isopropyl-2-oxo-2,3,6,7-tetrahydro-1H-purin-8-yl]-4-methoxy-N-methyl-benzamide]"
14,0.748,"COc1nc(N(C)C)ncc1-c1nc2c(n1C(C)C)C(c1ccc(Cl)c(F)c1)N(c1cc(Cl)cn(C)c1=O)C(=O)N2 (centres unmarked) [Example 24, 1-(5-Chloro-1-methyl-2-oxo-1,2-dihydropyridin-3-yl)-6-(4-chloro-3-fluorophenyl)-8-(2-(dimethylamino)-4-methoxypyrimidin-5-yl)-7-isopropyl-6,7-dihydro-1H-purin-2(3H)-one]"
15,0.354,"COc1nc(N(C)C)ncc1-c1nc2c(n1C(C)C)C(c1ccc(Cl)c(F)c1)N(c1cc(Cl)c[nH]c1=O)C(=O)N2 (centres unmarked) [Example 20, 1-(5-Chloro-2-oxo-1,2-dihydropyridin-3-yl)-6-(4-chloro-3-fluorophenyl)-8-(2-(dimethylamino)-4-methoxypyrimidin-5-yl)-7-isopropyl-6,7-dihydro-1H-purin-2(3H)-one]"
16,1.67,"COc1ncc(-c2nc3c(n2C(C)C)C(c2ccc(Cl)c(F)c2)N(c2cc(Cl)cn(C)c2=O)C(=O)N3)c(OC)n1 (centres unmarked) [Example 17, 1-(5-Chloro-1-methyl-2-oxo-1,2-dihydropyridin-3-yl)-6-(4-chloro-3-fluorophenyl)-8-(2,4-dimethoxypyrimidin-5-yl)-7-isopropyl-6,7-dihydro-1H-purin-2(3H)-one]"
17,0.93,"COc1ncc(-c2nc3c(n2C(C)C)C(c2ccc(Cl)c(F)c2)N(c2cc(Cl)c(=O)n(C)c2)C(=O)N3)c(OC)n1 (centres unmarked) [Example 19, 1-(5-Chloro-1-methyl-6-oxo-1,6-dihydropyridin-3-yl)-6-(4-chloro-3-fluorophenyl)-8-(2,4-dimethoxypyrimidin-5-yl)-7-isopropyl-6,7-dihydro-1H-purin-2(3H)-one]"
18,0.724,"COc1ccccc1-c1nc2c(n1C(C)C)C(c1ccc(C#N)cc1)N(c1cc(Cl)ccc1C)C(=O)N2 (centres unmarked) [Example 13, 4-[1-(5-Chloro-2-methyl-phenyl)-7-isopropyl-8-(2-methoxy-phenyl)-2-oxo-2,3,6,7-tetrahydro-1H-purin-6-yl]-benzonitrile]"
19,0.414,"COc1ccc(C#N)cc1-c1nc2c(n1C(C)C)C(c1ccc(Cl)cc1C)N(c1cc(Cl)ccc1C)C(=O)N2 (centres unmarked) [Example 12, 3-[1-(5-Chloro-2-methyl-phenyl)-6-(4-chloro-2-methyl-phenyl)-7-isopropyl-2-oxo-2,3,6,7-tetrahydro-1H-purin-8-yl]-4-methoxy-benzonitrile]"

# Reference: US9403827B2, “Substituted purinone compounds” (NOVARTIS AG, priority 2013, dated 2016)
